# Assay results taken from US10787462B2, “Heterocyclic compound” (TAKEDA PHARMACEUTICAL COMPANY LIMITED, priority 2015, dated 2020).
# Molecular target: T1, human RIPK1 (1-375) (Homo sapiens, UniProt Q13546)
# T1 construct: human RIPK1 (1-375) gene; GST; made in house; host or cells: Sf-9 insect cells
# T1 sequence (Q13546 1-375): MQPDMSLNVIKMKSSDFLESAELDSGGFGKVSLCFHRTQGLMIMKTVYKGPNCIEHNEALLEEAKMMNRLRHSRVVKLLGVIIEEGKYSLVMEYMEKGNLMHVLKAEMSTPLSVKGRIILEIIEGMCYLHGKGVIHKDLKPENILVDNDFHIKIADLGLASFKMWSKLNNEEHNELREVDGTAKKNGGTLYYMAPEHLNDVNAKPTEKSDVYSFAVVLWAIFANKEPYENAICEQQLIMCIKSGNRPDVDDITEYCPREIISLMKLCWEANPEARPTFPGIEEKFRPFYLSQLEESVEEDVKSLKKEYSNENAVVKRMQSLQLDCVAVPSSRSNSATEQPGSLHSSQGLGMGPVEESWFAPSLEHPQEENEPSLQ
# Assay: Human RIPK1 enzyme inhibitory effect (ADP-Glo Kinase Assay)
# Type: biochemical
# Conditions: read-out: human RIPK1 enzyme inhibitory effect at 10 μM (% inhibition), 10 μM test compound; well without enzyme = 100% inhibition
# Procedure: Experimental Example 1: Human RIPK1 Enzyme Inhibitory Effect
# Enzyme was prepared by transducing human RIPK1 (1-375) gene to Sf-9 insect cells, and purifying using GST affinity column, and enzyme activity evaluation was performed using the enzyme. The enzyme was used after preservation at −70° C. The RIPK1 enzyme inhibitory activity of the test compound was measured using ADP-Glo™ Kinase Assay (Promega) according the following experiment methods. The test compound diluted with assay buffer (25 mM HEPES (pH 7.5), 10 mM MgCl2, 0.01% Tween-20, 2 mM DTT) was added to 384 well plate by each 2 μL. Next, RIPK1 enzyme solution diluted with the assay buffer was added thereto by each 2 μL, and the mixture was incubated at room temperature for 20 min. After the incubation, 0.6 mM ATP solution was added thereto by each 2 μL to initiate an enzyme reaction. The mixture was incubated at room temperature for 120 min, and ADP-Glo solution prepared according to Promega protocol was added to the 384 well plate by each 3 μL, and the reaction was performed at room temperature for 40 min. Then, Kinase-Detection solution was added to the 384 well plate by each 6 μL, and the reaction was performed at room temperature for 40 min. After the reaction, the luminescence intensity was measured by plate reader Envision (PerkinElmer).
row,SMILES,inhibition at 10 µM [%]
1,"CN1C(=O)[C@@H](N2CCc3cn(Cc4c(F)cccc4F)nc3C2=O)COc2ccccc21 [Example 24, (3S)-3-(2-(2,6-difluorobenzyl)-7-oxo-2,4,5,7-tetrahydro-6H-pyrazolo[3,4-]pyridin-6-yl)-5-methyl-2,3-dihydro-1,5-benzoxazepin-4(5H)-one]",101
2,"CN1C(=O)[C@@H](N2CCc3cn(Cc4ccccc4Cl)nc3C2=O)COc2ccccc21 [Example 25, (3S)-3-(2-(2-ohlorobenzy)-7-oxo-2,4,5,7-tetrahydro-6H-pyrazolo[3,4-c]pyridin-6-yl)-5-methyl-2,3-dihydro-1,5-benzoxazepin-4(5H)-one]",100
3,"CN1C(=O)[C@@H](N2CCc3cn(Cc4cccc(Cl)c4)nc3C2=O)COc2ccccc21 [Example 26, (3S)-3-(2-(3-chlorobenzyl)-7-oxo-2,4,5,7-tetrahydro-6H-pyrazolo[3,4-c]pyridin-6-yl)-5-methyl-2,3-dihydro-1,5-benzoxazepin-4(5H)-one]",100
4,"CN1C(=O)[C@@H](N2CCc3cn(CC4CC4)nc3C2=O)COc2ccccc21 [Example 27, (3S)-3-(2-(cyclopropylmethyl)-7-oxo-2,4,5,7-hydro-6H-pyrazolo[3,4-c]pyridin-6-yl)-5-methyl-2,3-dihydro-1,5-benzoxazepin-4(5H)-one]",93
5,"CN1C(=O)[C@@H](N2CCc3cn(Cc4ccccc4C#N)nc3C2=O)COc2ccccc21 [Example 28, 2-((6-((3S)-5-methyl-4-oxo-2,3,4,5-tetrahydro-1,5-benzoxazepin-3-yl)-7-oxo-4,5,6,7-tetrahydro-2H-pyrazolo[3,4-c]pyridin-2-yl)methyl)benzonitrile]",99
6,"CN1C(=O)[C@@H](N2CCc3cn(Cc4cccc(C#N)c4)nc3C2=O)COc2ccccc21 [Example 29, 3-((6-((3S)-5-methyl-4-oxo-2,3,4,5-tetrahydro-1,5-benzoxazepin-3-yl)-7-oxo-4,5,6,7-tetrahydro-2H-pyrazolo[3,4-c]pyridin-2-yl)methyl)benzonitrile]",99
7,"CN1C(=O)[C@@H](N2CCc3cn(Cc4ccc(C#N)cc4)nc3C2=O)COc2ccccc21 [Example 30, 4-((6-((3S)-5-methyl-4-oxo-2,3,4,5-tetrahydro-1,5-benzoxazepin-3-yl)-7-oxo-4,5,6,7-tetrahydro-2H-pyrazolo[3,4-c]pyridin-2-yl)methyl)benzonitrile]",97
8,"CN1C(=O)[C@@H](N2CCc3cn(CC4CCC4)nc3C2=O)COc2ccccc21 [Example 31, (3S)-3-(2-(cyclobutylmethyl)-7-oxo-2,4,5,7-tetrahydro-6H-pyrazolo[3,4-c]pyridin-6-yl)-5-methyl-2,3-dihydro-1,5-benzoxazepin-4(5H)-one]",98
9,"CN1C(=O)[C@@H](N2CCc3cn(Cc4ccccn4)nc3C2=O)COc2ccccc21 [Example 32, (3S)-5-methyl-3-(7-oxo-2-(pyridin-2-ylmethyl)-2,4,5,7-tetrahydro-6H-pyrazolo[3,4-c]pyridin-6-yl)-2,3-dihydro-1,5-benzoxazepin-4(5H)-one]",97

# Now from value to compound:
row,inhibition at 10 µM [%],SMILES
1,95,"CN1C(=O)[C@@H](N2CCc3cn(CC4CC(F)(F)C4)nc3C2=O)COc2ccccc21 [Example 33, (3S)-3-(2-((3,3-difluorocyclobutyl)methyl)-7-oxo-2,4,5,7-tetrahydro-6H-pyrazolo[3,4-c]pyridin-6-yl)-5-methyl-2,3-dihydro-1,5-benzoxazepin-4(5H)-one]"
2,99,"CN1C(=O)[C@@H](N2CCc3cn(Cc4ccoc4)nc3C2=O)COc2ccccc21 [Example 34, (3S)-3-(2-(3-furylmethyl)-7-oxo-2,4,5,7-tetrahydro-6H-pyrazolo[3,4-c]pyridin-6-yl)-5-methyl-2,3-dihydro-1,5-benzoxazepin-4(5H)-L-one]"
3,96,"CN1C(=O)[C@@H](N2CCc3cn(Cc4ncco4)nc3C2=O)COc2ccccc21 [Example 35, (3S)-5-methyl-3-(2-(1,3-oxazol-2-ylmethyl)-7-oxo-2,4,5,7-tetrahydro-6H-pyrazolo[3,4-c]pyridin-6-yl)-2,3-dihydro-1,5-benzoxazepin-4(5H)-one]"
4,86,"CN1C(=O)[C@@H](N2CCc3cn(Cc4ncccn4)nc3C2=O)COc2ccccc21 [Example 36, (3S)-5-methyl-3-(7-oxo-2-(pyrimidin-2-ylmethyl)-2,4,5,7-tetrahydro-6H-pyrazolo[3,4-c]pyridin-6-yl)-2,3-dihydro-1,5-benzoxazepin-4(5H)-one]"
5,100,"CN1C(=O)[C@@H](N2CCc3cn(CC4CCCC4)nc3C2=O)COc2ccccc21 [Example 37, (3S)-3-(2-(cyclopentylmethyl)-7-oxo-2,4,5,7-tetrahydro-6H-pyrazolo[3,4-c]pyridin-yl)-5-methyl-2,3-dihydro-1,5-benzoxazepin-4(5H)-one]"
6,96,"CN1C(=O)[C@@H](N2CCc3cn(CC4COCCO4)nc3C2=O)COc2ccccc21 (stereo partly drawn) [Example 38, (3S)-3-(2-(1,4-dioxan-2-ylmethyl)-7-oxo-2,4,5,7-tetrahydro-6H-pyrazolo[3,4-c]pyridin-6-yl)-5-methyl-2,3-dihydro-1,5-benzoxazepin-4(5H)-one]"
7,92,"CN1C(=O)[C@@H](N2CCc3cn(Cc4ccn(C)n4)nc3C2=O)COc2ccccc21 [Example 39, (3S)-5-methyl-3-(2-((1-methyl-1H-pyrazol-3-yl)methyl)-7-oxo-2,4,5,7-tetrahydro-6H-pyrazolo[3,4-c]pyridin-6-yl)-2-,3-dihydro-1,5-benzoxazepin-4(5H)-one]"
8,100,"CN1C(=O)[C@@H](N2CCc3cn(Cc4ccccc4)nc3C2=O)COc2ccc(Br)cc21 [Example 40, (3S)-3-(2-benzyl-7-oxo-2,4,5,7-tetrahydro-6H-pyrazolo[3,4-c]pyridin-6-yl)-7-bromo-5-methyl-2,3-dihydro-1,5-benzoxazepin-4(5H)-one]"
9,101,"CN1C(=O)[C@@H](N2CCc3cn(Cc4ccccc4)nc3C2=O)COc2cc(Br)ccc21 [Example 41, (3S)-3-(2-benzyl-7-oxo-2,4,5,7-tetrahydro-6H-pyrazolo[3,4-c]pyridin-6-yl)-8-bromo-5-methyl-2,3-dihydro-1,5-benzoxazepin-4(5H)-one]"
10,99,"CN1C(=O)[C@@H](N2CCc3cn(Cc4cnccn4)nc3C2=O)COc2ccccc21 [Example 42, (3S)-5-methyl-3-(7-oxo-2-(pyrazin-2-ylmethyl)-2,4,5,7-tetrahydro-6H-pyrazolo[3,4-c]pyridin-6-yl)-2,3-dihydro-1,5-benzoxazepin-4(5H)-one]"
11,97,"CN1C(=O)[C@@H](N2CCc3cn(Cc4ccccc4F)nc3C2=O)COc2cc(C#N)ccc21 [Example 43, (3S)-3-(2-(2-fluorobenzyl)-7-oxo-2,4,5,7-tetrahydro-6H-pyrazolo[3,4-c]pyridin-6-yl)-5-methyl-4-oxo-2,3,4,5-tetrahydro-1,5-benzoxazepine-8-carbonitrile]"
12,100,"CNC(=O)c1ccc2c(c1)OC[C@H](N1CCc3c(nn(Cc4ccccc4)c3Cl)C1=O)C(=O)N2C [Example 44, (3S)-3-(2-benzyl-3-chloro-7-oxo-2,4,5,7-tetrahydro-6H-pyrazolo[3,4-c]pyridin-6-yl)-N,5-dimethyl-4-oxo-2,3,4,5-tetrahydro-1,5-benzoxazepine-8-carboxamide]"
